Structures are written as SMILES.

For assay [1], the system named is HMGal. Put plainly: HMGal synthesis rate ([35S]methionine incorporation). To be noted: 10 μg/ml. It is filed as cell-based. As for the experimental part: (§1) Measurement of HMGal and HMG-CoA Reductase Synthesis Rates Cells plated into 60×15 mm dishes were grown in 5% LPS MEM with 0.25 mg/ml active geneticin for 24 hours. These cells were washed with PBS and grown for 24 hours in 5% LPS MEM supplemented with 0.25 mg/ml active geneticin, 10 μM compactin and 0.1 mM mevalonate. After 24 hours, the medium was removed, the cells were washed with PBS and the medium was replaced with methionine-free MEM supplemented with 5% LPS, 250 μg/ml of active geneticin, 10 μM compactin, and 0.1 mM mevalonate. In addition, 20 mM mevalonate or 10 μg/ml farnesyl acetate was included in those plates previously treated with these compounds. […] Cells were washed, lysed and the HMGal and HMG-CoA reductase proteins were immunoprecipitated, subjected to SDS-PAGE and quantified. […]
(§2) Farnesyl compounds reduce translation and stimulate degradation of HMG-CoA reductase and HMGal A reduction in HMGal specific activity triggered by the farnesyl compounds could have been the result of a decrease in HMGal synthesis, an increase in HMGal degradation, or a combination of changes in both the synthesis and degradation rates. In order to test whether the farnesyl compounds impact synthesis, the rates of HMGal, HMG-CoA reductase, and total cellular protein synthesis were measured by [^35 S]methionine incorporation in the presence and absence of 10 μg/ml farnesyl acetate.

Assay [2] deals with HMG-CoA reductase. The assay can be described thus: HMG-CoA reductase degradation rate (pulse-chase). It is filed as cell-based. To be noted: 10 μg/ml during chase; untreated 9.3 hours. As for the experimental part: (§3) Measurement of HMGal and HMG-CoA Reductase Degradation Rates Cells grown in 60×15 mm dishes were washed once with ice-cold PBS and starved for 1 hour in 1 ml of methionine-free MEM supplemented with 5% LPS, 250 μg/ml of active geneticin, 10 μM compactin, and 0.1 mM mevalonate. These cells were radio-labeled for 2 hours in 300 μl of the methionine-free starvation medium containing 100 μCi of Tran^35 S-label (>1,000 Ci/mmol). Cells were incubated in an MEM-based chase medium containing 2 mM methionine, 5% LPS, 250 μg/ml of active geneticin, 10 μM compactin, and 0.1 mM mevalonate. During the chase period, some plates also had either 20 mM mevalonate, 10 μg/ml farnesyl acetate or 10 μg/ml ethyl farnesyl ether added to them as indicated in the figure legend. Following the chase, cells were washed, lysed and the HMGal and HMG-CoA reductase proteins were immunoprecipitated, subjected to SDS-PAGE and quantified.
(§4) In order to test whether the farnesyl compounds impact degradation, the rates of degradation for HMGal, HMG-CoA reductase, and total cellular protein were measured in the presence and absence of 10 μg/ml farnesyl acetate and ethyl farnesyl ether.

The subject of assay [3] is β-galactosidase. The assay can be described thus: β-galactosidase activity in CHO-Gal control cells. It is filed as cell-based. How it is done:
β-galactosidase Specific Activity--In vitro β-galactosidase activity was measured using the substrate, o-nitrophenyl-β-D-galactopyranoside. Specific activities were calculated using protein concentration values.
To confirm that the reduction in HMGal activity was the result of a regulatory function specifically targeting the membrane domain of HMGal, the effects of farnesyl acetate on β-galactosidase activity were measured in vitro for both CHO-HMGal cells and CHO-Gal cells. The CHO-Gal cells had been stably transfected with a construct identical to the HMGal construct (using the same vector, promoter, and 5' and 3' flanking regions) except that the construct in the CHO-Gal cells codes for a soluble β-galactosidase protein instead of the HMGal fusion protein with the membrane domain of HMG-CoA reductase. In this experiment, the CHO-Gal cells served to control for any artifacts farnesyl acetate might cause in the β-galactosidase assay or any nonspecific effects farnesyl acetate might have on the rates of protein synthesis or degradation.

Assay [4] relates to total cellular protein. The assay can be described thus: Total cellular protein degradation. To be noted: 10 μg/ml. It is filed as cell-based. As for the experimental part: as §3, §4
For assay [5], the system named is total cellular protein. The assay can be described thus: Total cellular protein synthesis (TCA-precipitable counts). Type of assay: cell-based. To be noted: 10 μg/ml. As for the experimental part:
as §1, §2

The test system of assay [6] is squalene synthase. Put plainly: Squalene synthase assay (cell lysate). To be noted: 4 nM to 0.2 mM. It is filed as biochemical. How it is done:
Squalene Synthase Assay--The cell lysate was prepared immediately prior to running the assay. Cells were washed three times with PBS, once with a 0.1M potassium phosphate buffer (pH 7.4) containing 5 mM MgCl2 and 5 mM CHAPS, and once with a 0.01M potassium phosphate buffer (pH 7.4) containing 0.5 mM MgCl2 and 0.5 mM CHAPS. Cells were scraped with a rubber policeman in approximately 0.5 ml of the final wash buffer and dounce homogenized with 20 strokes, while on ice. An aliquot of cell lysate was examined with a light microscope to ensure that essentially all cells in the sample were lysed. An additional aliquot of cell lysate was saved for protein determination. […] The squalene was isolated by TLC and the radioactivity of the squalene bands was measured as previously described. […]
Since both farnesyl compounds have a structural similarity to farnesyl pyrophosphate, the substrate for squalene synthase, and some of the farnesyl compounds that have been tested function as a competitive inhibitor of squalene synthase, the effects of farnesyl acetate on in vitro squalene synthase activity was measured. As a positive control, squalene synthase activity was also measured in tile presence of zaragozic acid A, a potent competitive inhibitor of the enzyme. […]

Turning to `CC(=O)OCC=C(C)CCC=C(C)CCC=C(C)C` [farnesyl acetate], the “reduction in the rate of HMGal synthesis” value in assay [1] is 80%. In assay [2], the “half-life of HMG-CoA reductase” value is 3.6 h. Also, the “reduction of the half-life of HMG-CoA reductase” value in assay [2] stood at 60%. Further, the “change of β-galactosidase activity of CHO-Gal cells” value is reported as “not changed significantly” in assay [3] (10 μg/ml) and “essentially unchanged” in assay [3] (20 μg/ml). Besides, the “effect on the degradation of total cellular protein” value in assay [4] is listed as “Neither farnesyl compound had a significant effect”. In addition, in assay [5], the “effect on total protein synthesis (TCA-precipitable counts)” value is “Neither farnesyl acetate nor mevalonate have a significant effect”. In addition, the “effect on in vitro squalene synthase activity” value in assay [6] is listed as “negligible effect”.
